Species on record: Rattus norvegicus
Test: Open TG-GATES - Regimen: Daily Repeat
Assay type: toxicity, organism-based, Sprague-Dawley
Set-up: regimen Daily Repeat, gender Male, age 6 weeks
Details: in vivo, po, route gavage; for APTT / Bas / Eos / Fbg / Hb / Ht / Lym / MCH / MCHC / MCV / Mono / Neu / PT / Plat / RBC / Ret / WBC: tissue Blood; for KIDNEY_L / KIDNEY_R / KIDNEY_TOTAL: tissue Kidney; for LIVER: tissue Liver; for A/G / ALP / ALT / AST / BUN / CRE / Ca / Cl / DBIL / GLC / IP / K / LDH / Na / PL / RALB / TBIL / TC / TG / TP / gamma-GTP: tissue Plasma
[1] = 200 mg/kg, 72 h, dose level Middle, time 3 day
[2] = 200 mg/kg, […], dose level Middle, time 7 day
[3] = 200 mg/kg, […], dose level Middle, time 14 day
[4] = 200 mg/kg, […], dose level Middle, time 28 day
[5] = 600 mg/kg, 72 h, dose level High, time 3 day
[6] = 600 mg/kg, […], dose level High, time 7 day
[7] = 600 mg/kg, […], dose level High, time 14 day
[8] = 600 mg/kg, […], dose level High, time 28 day

CCOC(=O)[C@H](CCc1ccccc1)N[C@@H](C)C(=O)N1CCC[C@H]1C(=O)O
TERMINAL_BW [1]: 240.7 g
APTT [1]: 15.8 s
Bas [1]: 0%
Eos [1]: 1%
Fbg [1]: 231 mg/dL
Hb [1]: 13.2 g/dL
Ht [1]: 40.1%
Lym [1]: 78%
MCH [1]: 21.9 pg
MCHC [1]: 32.9%
MCV [1]: 66.6 fL
Mono [1]: 8.4%
Neu [1]: 12.6%
PT [1]: 11.8 s
Plat [1]: 114.3 x10_4/uL
RBC [1]: 601.8 x10_4/ul
Ret [1]: 5.9%
WBC [1]: 85.6 x10_2/uL
KIDNEY_L [1]: 1.1 g
KIDNEY_R [1]: 1.1 g
KIDNEY_TOTAL [1]: 2.2 g
LIVER [1]: 11.8 g
A/G [1]: 2
ALP [1]: 912.6 IU/L
ALT [1]: 35 IU/L
AST [1]: 65.2 IU/L
BUN [1]: 19.4 mg/dL
CRE [1]: 0.5 mg/dL
Ca [1]: 11 mg/dL
Cl [1]: 104.4 meq/L
DBIL [1]: 0.03 mg/dL
GLC [1]: 193 mg/dL
IP [1]: 8.7 mg/dL
K [1]: 4.3 meq/L
LDH [1]: 98.2 IU/L
Na [1]: 140.8 meq/L
PL [1]: 146 mg/dL
RALB [1]: 4 g/dL
TBIL [1]: 0.4 mg/dL
TC [1]: 81.4 mg/dL
TG [1]: 81.2 mg/dL
TP [1]: 6 g/dL
gamma-GTP [1]: 1.4 IU/L
TERMINAL_BW [2]: 259.9 g
TERMINAL_BW [3]: 304.7 g
TERMINAL_BW [4]: 336 g
APTT [2]: 16.8 s
Bas [2]: 0%
Eos [2]: 1%
Fbg [2]: 228 mg/dL
Hb [2]: 13.3 g/dL
Ht [2]: 40.2%
Lym [2]: 81.8%
MCH [2]: 20.4 pg
MCHC [2]: 33.1%
MCV [2]: 61.7 fL
Mono [2]: 6.2%
Neu [2]: 10.8%
PT [2]: 11.6 s
Plat [2]: 123.3 x10_4/uL
RBC [2]: 651.6 x10_4/ul
Ret [2]: 4.1%
WBC [2]: 108.2 x10_2/uL
APTT [3]: 16.2 s
Bas [3]: 0%
Eos [3]: 1.2%
Fbg [3]: 242.2 mg/dL
Hb [3]: 13.4 g/dL
Ht [3]: 40.5%
Lym [3]: 81%
MCH [3]: 20.2 pg
MCHC [3]: 33.2%
MCV [3]: 60.8 fL
Mono [3]: 6%
Neu [3]: 12%
PT [3]: 11.5 s
Plat [3]: 113 x10_4/uL
RBC [3]: 666.8 x10_4/ul
Ret [3]: 3.6%
WBC [3]: 116.4 x10_2/uL
APTT [4]: 15.5 s
Bas [4]: 0%
Eos [4]: 1%
Fbg [4]: 240.2 mg/dL
Hb [4]: 14.3 g/dL
Ht [4]: 42.9%
Lym [4]: 87.4%
MCH [4]: 19 pg
MCHC [4]: 33.3%
MCV [4]: 57.1 fL
Mono [4]: 4.2%
Neu [4]: 7.4%
PT [4]: 11.8 s
Plat [4]: 101.7 x10_4/uL
RBC [4]: 752.2 x10_4/ul
Ret [4]: 3.4%
WBC [4]: 172.8 x10_2/uL
KIDNEY_L [2]: 1.2 g
KIDNEY_R [2]: 1.2 g
KIDNEY_TOTAL [2]: 2.4 g
KIDNEY_L [3]: 1.3 g
KIDNEY_R [3]: 1.3 g
KIDNEY_TOTAL [3]: 2.6 g
KIDNEY_L [4]: 1.4 g
KIDNEY_R [4]: 1.4 g
KIDNEY_TOTAL [4]: 2.9 g
LIVER [2]: 11.6 g
LIVER [3]: 12.7 g
LIVER [4]: 12.8 g
A/G [2]: 2.2
ALP [2]: 881.8 IU/L
ALT [2]: 27.4 IU/L
AST [2]: 56.8 IU/L
BUN [2]: 24 mg/dL
CRE [2]: 0.5 mg/dL
Ca [2]: 10.3 mg/dL
Cl [2]: 104.4 meq/L
DBIL [2]: 0.002 mg/dL
GLC [2]: 207.4 mg/dL
IP [2]: 8.4 mg/dL
K [2]: 4.7 meq/L
LDH [2]: 88.8 IU/L
Na [2]: 136.6 meq/L
PL [2]: 141.6 mg/dL
RALB [2]: 3.9 g/dL
TBIL [2]: 0.4 mg/dL
TC [2]: 74.6 mg/dL
TG [2]: 81.8 mg/dL
TP [2]: 5.7 g/dL
gamma-GTP [2]: 1.4 IU/L
A/G [3]: 1.9
ALP [3]: 760.4 IU/L
ALT [3]: 28.4 IU/L
AST [3]: 57.2 IU/L
BUN [3]: 27.6 mg/dL
CRE [3]: 0.6 mg/dL
Ca [3]: 10.8 mg/dL
Cl [3]: 105.6 meq/L
DBIL [3]: 0.008 mg/dL
GLC [3]: 194.8 mg/dL
IP [3]: 8.3 mg/dL
K [3]: 4.6 meq/L
LDH [3]: 86.2 IU/L
Na [3]: 138 meq/L
PL [3]: 154.8 mg/dL
RALB [3]: 3.9 g/dL
TBIL [3]: 0.3 mg/dL
TC [3]: 83 mg/dL
TG [3]: 83.2 mg/dL
TP [3]: 6.1 g/dL
gamma-GTP [3]: 1.2 IU/L
A/G [4]: 1.8
ALP [4]: 617.8 IU/L
ALT [4]: 24 IU/L
AST [4]: 55.4 IU/L
BUN [4]: 45.2 mg/dL
CRE [4]: 0.7 mg/dL
Ca [4]: 10.2 mg/dL
Cl [4]: 105.8 meq/L
DBIL [4]: 0.078 mg/dL
GLC [4]: 206 mg/dL
IP [4]: 7.5 mg/dL
K [4]: 4.8 meq/L
LDH [4]: 62.4 IU/L
Na [4]: 137.6 meq/L
PL [4]: 145.6 mg/dL
RALB [4]: 3.8 g/dL
TBIL [4]: 0.3 mg/dL
TC [4]: 77 mg/dL
TG [4]: 87.2 mg/dL
TP [4]: 5.9 g/dL
gamma-GTP [4]: 2.2 IU/L
TERMINAL_BW [5]: 244.3 g
APTT [5]: 16 s
Bas [5]: 0%
Eos [5]: 1.4%
Fbg [5]: 232.8 mg/dL
Hb [5]: 13 g/dL
Ht [5]: 38.8%
Lym [5]: 79.6%
MCH [5]: 20.9 pg
MCHC [5]: 33.4%
MCV [5]: 62.5 fL
Mono [5]: 6.6%
Neu [5]: 12.2%
PT [5]: 11.6 s
Plat [5]: 116.5 x10_4/uL
RBC [5]: 620.6 x10_4/ul
Ret [5]: 4.9%
WBC [5]: 116.9 x10_2/uL
KIDNEY_L [5]: 1 g
KIDNEY_R [5]: 1.1 g
KIDNEY_TOTAL [5]: 2.1 g
LIVER [5]: 11.4 g
A/G [5]: 1.8
ALP [5]: 892.2 IU/L
ALT [5]: 33.2 IU/L
AST [5]: 58.2 IU/L
BUN [5]: 25.2 mg/dL
CRE [5]: 0.5 mg/dL
Ca [5]: 11 mg/dL
Cl [5]: 104 meq/L
DBIL [5]: 0.02 mg/dL
GLC [5]: 193.2 mg/dL
IP [5]: 8.9 mg/dL
K [5]: 4.9 meq/L
LDH [5]: 83.6 IU/L
Na [5]: 138.8 meq/L
PL [5]: 154.2 mg/dL
RALB [5]: 3.8 g/dL
TBIL [5]: 0.3 mg/dL
TC [5]: 85.8 mg/dL
TG [5]: 93.6 mg/dL
TP [5]: 5.9 g/dL
gamma-GTP [5]: 1.4 IU/L
TERMINAL_BW [6]: 266.1 g
TERMINAL_BW [7]: 298.8 g
TERMINAL_BW [8]: 358.5 g
APTT [6]: 15.8 s
Bas [6]: 0%
Eos [6]: 1.2%
Fbg [6]: 228.2 mg/dL
Hb [6]: 12.5 g/dL
Ht [6]: 37.8%
Lym [6]: 78.2%
MCH [6]: 21.1 pg
MCHC [6]: 33.2%
MCV [6]: 63.8 fL
Mono [6]: 6.4%
Neu [6]: 14.8%
PT [6]: 11.7 s
Plat [6]: 110 x10_4/uL
RBC [6]: 593.8 x10_4/ul
Ret [6]: 3.8%
WBC [6]: 113.9 x10_2/uL
APTT [7]: 16.5 s
Bas [7]: 0%
Eos [7]: 1.2%
Fbg [7]: 232.2 mg/dL
Hb [7]: 12.6 g/dL
Ht [7]: 37.8%
Lym [7]: 80%
MCH [7]: 20.7 pg
MCHC [7]: 33.4%
MCV [7]: 61.9 fL
Mono [7]: 4.2%
Neu [7]: 14.4%
PT [7]: 11.7 s
Plat [7]: 102.3 x10_4/uL
RBC [7]: 611.2 x10_4/ul
Ret [7]: 3.3%
WBC [7]: 122.6 x10_2/uL
APTT [8]: 16 s
Bas [8]: 0%
Eos [8]: 1%
Fbg [8]: 249.8 mg/dL
Hb [8]: 13.9 g/dL
Ht [8]: 41.5%
Lym [8]: 84.2%
MCH [8]: 19.4 pg
MCHC [8]: 33.5%
MCV [8]: 57.9 fL
Mono [8]: 4.8%
Neu [8]: 9.8%
PT [8]: 11.6 s
Plat [8]: 114.3 x10_4/uL
RBC [8]: 717.4 x10_4/ul
Ret [8]: 5%
WBC [8]: 148.4 x10_2/uL
KIDNEY_L [6]: 1.2 g
KIDNEY_R [6]: 1.3 g
KIDNEY_TOTAL [6]: 2.5 g
KIDNEY_L [7]: 1.3 g
KIDNEY_R [7]: 1.3 g
KIDNEY_TOTAL [7]: 2.7 g
KIDNEY_L [8]: 1.7 g
KIDNEY_R [8]: 1.7 g
KIDNEY_TOTAL [8]: 3.4 g
LIVER [6]: 12.4 g
LIVER [7]: 13 g
LIVER [8]: 14.8 g
A/G [6]: 1.9
ALP [6]: 795.8 IU/L
ALT [6]: 26.8 IU/L
AST [6]: 59 IU/L
BUN [6]: 40.4 mg/dL
CRE [6]: 0.6 mg/dL
Ca [6]: 10.6 mg/dL
Cl [6]: 105.2 meq/L
DBIL [6]: 0.002 mg/dL
GLC [6]: 199.6 mg/dL
IP [6]: 8 mg/dL
K [6]: 5.1 meq/L
LDH [6]: 97 IU/L
Na [6]: 137.4 meq/L
PL [6]: 144 mg/dL
RALB [6]: 3.7 g/dL
TBIL [6]: 0.4 mg/dL
TC [6]: 80.6 mg/dL
TG [6]: 85.2 mg/dL
TP [6]: 5.7 g/dL
gamma-GTP [6]: 1.2 IU/L
A/G [7]: 1.8
ALP [7]: 654.8 IU/L
ALT [7]: 26.8 IU/L
AST [7]: 58.6 IU/L
BUN [7]: 38.2 mg/dL
CRE [7]: 0.6 mg/dL
Ca [7]: 10.9 mg/dL
Cl [7]: 104.4 meq/L
DBIL [7]: 0.006 mg/dL
GLC [7]: 191 mg/dL
IP [7]: 8.9 mg/dL
K [7]: 4.8 meq/L
LDH [7]: 90.4 IU/L
Na [7]: 137 meq/L
PL [7]: 149 mg/dL
RALB [7]: 3.9 g/dL
TBIL [7]: 0.3 mg/dL
TC [7]: 78.8 mg/dL
TG [7]: 81.2 mg/dL
TP [7]: 6.1 g/dL
gamma-GTP [7]: 1.2 IU/L
A/G [8]: 1.7
ALP [8]: 553.2 IU/L
ALT [8]: 23.8 IU/L
AST [8]: 65.2 IU/L
BUN [8]: 44 mg/dL
CRE [8]: 0.7 mg/dL
Ca [8]: 10.9 mg/dL
Cl [8]: 105.2 meq/L
DBIL [8]: 0.062 mg/dL
GLC [8]: 195.4 mg/dL
IP [8]: 7.4 mg/dL
K [8]: 4.9 meq/L
LDH [8]: 100.2 IU/L
Na [8]: 137.6 meq/L
PL [8]: 150.2 mg/dL
RALB [8]: 3.9 g/dL
TBIL [8]: 0.3 mg/dL
TC [8]: 75.4 mg/dL
TG [8]: 97.8 mg/dL
TP [8]: 6.1 g/dL
gamma-GTP [8]: 1.8 IU/L
